Source: PubChem BioAssay (NCI)
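Method: 48-hour compound exposure of cells in 96-well plates, five concentrations, linear interpolation of endpoints. At the GI50, growth is halved. Definition used: TGI = concentration required for complete inhibition of growth.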

Test system: MDA-MB-468 breast
Assay: DTP human tumour cell line panel, 48 h

Structure (SMILES) | GI50 [µM] | TGI [µM]
ClCCN(CCCl)c1ccc(-n2cnc3c(Cl)ncnc32)cc1 | 1.97 | 4.18
COc1ccc2[nH]cc(-c3nc(-c4cn(C)c5ccncc45)cs3)c2c1 | 1.97 | 3.77
COc1cc(CSc2nc3ccc(C)cc3c(=O)n2Cc2ccccc2)cc(OC)c1OC | 0.479 | 3.01
CN1CCN(c2ccc3nc(-c4cc(C(C)(C)C)c(O)c(C(C)(C)C)c4)[nH]c3c2)CC1 | 1.92 | 3.76
Brc1ccc([I+]c2ccc(Br)cc2)cc1 | 0.541 | 3.52
CS(=O)(=O)CCNCc1ccc(-c2ccc3ncnc(Nc4ccc(OCc5cccc(C(F)(F)F)c5)cc4)c3c2)o1 | 3.39 | 8.6
O=C(COc1cccc(/C=C2\COc3ccccc3C2=O)c1)Nc1nccs1 | 1.91 | 3.54
CCC(Sc1nnc2c3ccccc3n(CC)c2n1)C(=O)Nc1ccccc1OC (centres undefined) | 1.37 | 4.23
C(=C1c2ccccc2-c2ccccc21)c1ccccn1 | 2.64 | 14.7
CCCCC(=O)N/N=C/c1cc(I)cc(I)c1O | 2.85 | 18.4
O=C(Nc1cc(C(F)(F)F)cc(C(F)(F)F)c1)Nc1ccc2oc(=O)ccc2c1 | 0.641 | 4.41
CC(C)(C)c1ccc([I+]c2ccc(C(C)(C)C)cc2)cc1 | 0.4 | 2.28
Oc1ccccc1-c1nnc(SCc2ccc(O)c3ncccc23)n1-c1ccccc1 | 0.349 | 9.29
COCCOC(=O)C1=C(C)NC2=C(C(=O)CC(c3ccccc3OC)C2)C1c1cccc(O)c1 (centres undefined) | 3.92 | 21.9
COc1ccc(O)c(C(=O)c2ccc(C(=O)O[C@@H]3CCCNC[C@H]3NC(=O)c3ccncc3)cc2)c1F | 0.511 | > 23.7
Oc1ccc(CSc2nnc(-c3ccccc3)o2)c2cccnc12 | 2.21 | > 100

Structure (SMILES) | GI50 [µM] | TGI [µM]
COc1ccc2c(c1)c(C1(c3cn(C)c4ccc(OC)cc34)C(=O)Nc3ccc(F)cc31)cn2C | 3.4 | 41.4
CCCN(CCC)c1ccc(CO)c(C)c1 | 0.962 | 4.32
CN1C(=O)CNC(=O)[C@H](NC(=O)c2nc3ccccc3cc2O)CSSC[C@H]1C(=O)NCCc1nc2ccccc2cc1O | 1.32 | 11
Nc1cc(-c2ccccc2)ccc1O | 42.3 | > 100
CCC[C@H](N[C@@H]1CCc2cc(F)cc(F)c2C1)C(=O)Nc1cn(C(C)(C)CNCC(C)(C)C)cn1 | 3.48 | 29.7
C#C[C@]1(O)CC[C@H]2[C@@H]3CC=C4c5sc(N=C(N)N)nc5CC[C@]4(C)[C@H]3CC[C@@]21C | 0.741 | 2.2
COc1cccc(/C=N\Nc2ccc([N+](=O)[O-])cn2)c1O | 2.27 | 6.64
O=C1OC(c2ccc(O)c(Cl)c2)(c2ccc(O)c(Cl)c2)c2ccc(Br)c3cccc1c23 (tested in a mixture with another compound) | 14.6 | 34.1
CCCCCCCCCCCCCCCc1cc(O)ccc1N | 2.04 | 6.3
COc1cnc2c(c1)C(=O)c1c-2n(CCCn2ccnc2)c(=O)c2cc(Cl)ccc12 | 0.0252 | 0.0855
CCN(CC)c1ccc2c(c1)Oc1nc(N)c(C#N)c(N)c1C2Sc1ccc(SC)cc1 (centres undefined) | 1.94 | 3.64
C#C[C@]1(O)CC[C@H]2[C@@H]3CC=C4c5sc(-c6ccc(F)cn6)nc5CC[C@]4(C)[C@H]3CC[C@@]21C | 2.99 | 13.7
CC1(C)N=C(N)N=C(N)N1c1ccc(F)c(C(F)(F)F)c1 | 1.47 | > 100
Cn1c(COC(=O)N2CCCCC2)nc2c(N3CCOCC3)nc(-c3ccccc3)nc21 | 0.656 | 2.19
Cn1c(=O)cc2c3c(c(NCCCO)ccc31)C(=O)c1ccccc1-2 | 2.11 | 9.66
COc1ccc(-c2n[nH]nc2-c2csc3ccccc23)cc1OC | 0.631 | 10.7
